Test results published in ChEMBL document CHEMBL4507326, “Data for DCP probe TP-030-2” (2021).

Legend:
[1] = target: Sodium-dependent noradrenaline transporter (Homo sapiens) (UniProt P23975); details: Compound concentration 10.0 uM
LIM domain kinase 1 = LIM domain kinase 1 (Homo sapiens, UniProt P53667); experiment: LIMK1(LIM1LGY1) Takeda global kinase panel
[2] = target: NUAK family SNF1-like kinase 2 (Homo sapiens, UniProt Q9H093); experiment: NuaK2(NUA2LHY1) Takeda global kinase panel
[3] = target: Tyrosine-protein kinase ABL2 (Homo sapiens, UniProt P42684); experiment: Arg(ABL2LGF1) Takeda global kinase panel
[4] = target: Mitogen-activated protein kinase kinase kinase 13 (Homo sapiens, UniProt O43283); experiment: LZK(M313LGRJ) Takeda global kinase panel
[5] = target: Adenosine receptor A2a (Homo sapiens) (UniProt P29274); details: Compound concentration 10.0 uM
[6] = target: TRAF2 and NCK-interacting protein kinase (Homo sapiens, UniProt Q9UKE5); experiment: TNIK [ZC2(TNIKLGF1)] Takeda global kinase panel
[7] = target: Insulin receptor-related protein (Homo sapiens, UniProt P14616); experiment: IRR(INSSLGF1) Takeda global kinase panel
Rattus norvegicus = species on record: Rattus norvegicus; experiment: Inhibition of Imidazoline I2, Central at 10 µM in the Eurofins-Panlabs radioligand binding assay (Eurofins_assay_241000); set-up: ligand concentration 2 nM; details: Compound concentration 10.0 uM
[8] = target: Calcium/calmodulin-dependent protein kinase type 1B (Homo sapiens, UniProt Q6P2M8); experiment: CaMK1beta(PNCKLGRI) Takeda global kinase panel
[9] = target: Mitogen-activated protein kinase 10 (Homo sapiens, UniProt P53779); experiment: JNK3(MP10LGF2) Takeda global kinase panel
[10] = target: Mitotic checkpoint serine/threonine-protein kinase BUB1 (Homo sapiens, UniProt O43683); experiment: Bub1(BUB1LGRL) Takeda global kinase panel
[11] = target: Serine/threonine-protein kinase pim-1 (Homo sapiens, UniProt P11309); experiment: Pim1(PIM1LGP1) Takeda global kinase panel
[12] = target: MAP kinase-activated protein kinase 5 (Homo sapiens, UniProt Q8IW41); experiment: MAPKAPK5(MPK5LGN1) Takeda global kinase panel
[13] = target: Cyclin-dependent kinase 4 (Homo sapiens, UniProt P11802); experiment: CDK4(CDK4CGS1) Takeda global kinase panel
[14] = target: cAMP-dependent protein kinase catalytic subunit gamma (Homo sapiens, UniProt P22612); experiment: PKAgamma(PRCGLGY1) Takeda global kinase panel
[15] = target: Serine/threonine-protein kinase Sgk3 (Homo sapiens, UniProt Q96BR1); experiment: SGK3(SGK3LGY1) Takeda global kinase panel
[16] = target: 5-hydroxytryptamine receptor 2B (Homo sapiens) (UniProt P41595); details: Compound concentration 10.0 uM
[17] = target: 5'-AMP-activated protein kinase catalytic subunit alpha-1 (Homo sapiens, UniProt Q13131); experiment: AMPKalpha1(PRA1PGF1) Takeda global kinase panel
Sequence of 5'-AMP-activated protein kinase catalytic subunit alpha-1 (Q13131 whole entry): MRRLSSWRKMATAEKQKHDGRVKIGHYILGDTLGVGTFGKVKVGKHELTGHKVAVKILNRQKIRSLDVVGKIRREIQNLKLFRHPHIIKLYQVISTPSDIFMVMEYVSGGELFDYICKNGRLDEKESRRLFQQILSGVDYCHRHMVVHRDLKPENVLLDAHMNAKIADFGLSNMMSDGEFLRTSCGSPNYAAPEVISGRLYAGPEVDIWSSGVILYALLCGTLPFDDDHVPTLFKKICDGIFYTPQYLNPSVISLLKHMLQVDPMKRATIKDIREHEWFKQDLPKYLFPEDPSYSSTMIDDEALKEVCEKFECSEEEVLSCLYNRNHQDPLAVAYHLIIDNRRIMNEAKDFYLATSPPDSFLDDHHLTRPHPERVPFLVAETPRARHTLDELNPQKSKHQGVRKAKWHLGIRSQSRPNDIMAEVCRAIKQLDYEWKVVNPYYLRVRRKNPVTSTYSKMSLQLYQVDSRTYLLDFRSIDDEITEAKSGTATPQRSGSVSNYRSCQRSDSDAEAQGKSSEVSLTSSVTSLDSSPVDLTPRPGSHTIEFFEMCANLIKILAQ

[18] = target: Mitogen-activated protein kinase kinase kinase kinase 1 (Homo sapiens, UniProt Q92918); experiment: HPK1(M4K1LGY1) Takeda global kinase panel
[19] = target: Microtubule-associated serine/threonine-protein kinase 3 (Homo sapiens, UniProt O60307); experiment: MAST3(MAS3LGE1) Takeda global kinase panel
Sequence of Microtubule-associated serine/threonine-protein kinase 3 (O60307 whole entry): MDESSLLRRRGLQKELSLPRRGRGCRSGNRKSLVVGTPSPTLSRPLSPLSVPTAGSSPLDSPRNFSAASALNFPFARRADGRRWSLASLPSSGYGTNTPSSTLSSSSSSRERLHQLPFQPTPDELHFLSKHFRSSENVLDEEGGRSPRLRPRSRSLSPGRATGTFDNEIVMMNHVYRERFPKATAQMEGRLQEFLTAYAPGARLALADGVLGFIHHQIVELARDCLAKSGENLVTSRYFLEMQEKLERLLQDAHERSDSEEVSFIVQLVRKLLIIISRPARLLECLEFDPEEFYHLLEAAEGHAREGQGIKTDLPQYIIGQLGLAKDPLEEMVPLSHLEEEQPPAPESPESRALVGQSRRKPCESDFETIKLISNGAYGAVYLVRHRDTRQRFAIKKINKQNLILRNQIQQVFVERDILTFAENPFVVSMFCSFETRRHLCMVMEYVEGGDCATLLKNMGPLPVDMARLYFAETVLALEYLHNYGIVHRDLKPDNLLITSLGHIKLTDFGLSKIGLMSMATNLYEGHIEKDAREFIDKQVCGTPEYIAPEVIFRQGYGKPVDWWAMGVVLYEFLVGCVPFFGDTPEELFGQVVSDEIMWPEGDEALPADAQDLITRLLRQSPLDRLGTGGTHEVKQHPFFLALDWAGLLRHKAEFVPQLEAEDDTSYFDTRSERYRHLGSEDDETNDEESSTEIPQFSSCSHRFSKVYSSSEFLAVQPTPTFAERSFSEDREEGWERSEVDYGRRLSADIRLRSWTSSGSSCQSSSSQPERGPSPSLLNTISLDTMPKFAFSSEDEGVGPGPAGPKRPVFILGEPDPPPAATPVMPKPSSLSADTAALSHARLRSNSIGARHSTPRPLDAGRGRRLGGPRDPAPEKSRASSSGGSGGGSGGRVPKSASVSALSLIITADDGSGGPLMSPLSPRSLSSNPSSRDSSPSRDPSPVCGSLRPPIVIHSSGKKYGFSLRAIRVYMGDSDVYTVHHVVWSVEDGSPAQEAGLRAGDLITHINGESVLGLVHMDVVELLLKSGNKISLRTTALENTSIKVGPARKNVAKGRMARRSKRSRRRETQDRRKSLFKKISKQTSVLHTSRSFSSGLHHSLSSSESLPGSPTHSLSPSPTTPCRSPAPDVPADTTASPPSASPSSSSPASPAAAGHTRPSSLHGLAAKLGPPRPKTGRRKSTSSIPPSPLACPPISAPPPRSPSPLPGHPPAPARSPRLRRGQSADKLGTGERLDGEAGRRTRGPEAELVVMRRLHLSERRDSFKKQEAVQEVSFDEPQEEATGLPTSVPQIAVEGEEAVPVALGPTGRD

[20] = target: Androgen receptor (Homo sapiens) (UniProt P10275); details: Compound concentration 10.0 uM
[21] = target: Cyclin-dependent kinase 8 (Homo sapiens, UniProt P49336); experiment: CDK8(CDK8CGS1) Takeda global kinase panel
[22] = target: Leukocyte tyrosine kinase receptor (Homo sapiens, UniProt P29376); experiment: LTK(LTK1LGF1) Takeda global kinase panel
[23] = target: Tyrosine-protein kinase receptor UFO (Homo sapiens, UniProt P30530); experiment: Axl(AXL1LGY1) Takeda global kinase panel
[24] = target: Muscle, skeletal receptor tyrosine-protein kinase (Homo sapiens, UniProt O15146); experiment: MUSK(MUSKLGY1) Takeda global kinase panel
TGF-beta receptor type-2 = TGF-beta receptor type-2 (Homo sapiens, UniProt P37173); experiment: TGFbetaR2(TGF2LGY1) Takeda global kinase panel
[25] = target: Fibroblast growth factor receptor 3 (Homo sapiens, UniProt P22607); experiment: FGFR3(FGF3LGF1) Takeda global kinase panel
Activated CDC42 kinase 1 = Activated CDC42 kinase 1 (Homo sapiens, UniProt Q07912); experiment: Ack(TNK2LGF1) Takeda global kinase panel
[26] = target: Mitogen-activated protein kinase kinase kinase 7 (Homo sapiens, UniProt O43318); experiment: TAK1(M3K7CHY1) Takeda global kinase panel
Sequence of Mitogen-activated protein kinase kinase kinase 7 (O43318 whole entry): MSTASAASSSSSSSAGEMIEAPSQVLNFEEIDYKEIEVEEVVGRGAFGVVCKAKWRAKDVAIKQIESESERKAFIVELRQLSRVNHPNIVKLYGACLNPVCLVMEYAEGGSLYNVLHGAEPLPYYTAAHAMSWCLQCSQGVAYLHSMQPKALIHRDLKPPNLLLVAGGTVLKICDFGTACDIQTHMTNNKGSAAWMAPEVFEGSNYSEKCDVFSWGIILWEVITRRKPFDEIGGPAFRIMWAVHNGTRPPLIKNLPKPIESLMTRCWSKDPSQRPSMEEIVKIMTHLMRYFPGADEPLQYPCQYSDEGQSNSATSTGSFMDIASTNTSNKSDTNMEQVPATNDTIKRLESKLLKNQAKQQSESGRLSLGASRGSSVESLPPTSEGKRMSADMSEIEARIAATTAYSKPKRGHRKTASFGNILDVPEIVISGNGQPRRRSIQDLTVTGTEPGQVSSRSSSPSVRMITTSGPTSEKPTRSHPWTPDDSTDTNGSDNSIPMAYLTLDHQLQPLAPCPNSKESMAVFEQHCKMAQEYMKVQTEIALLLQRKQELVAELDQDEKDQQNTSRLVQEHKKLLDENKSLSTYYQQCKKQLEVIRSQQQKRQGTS

[27] = target: Serine/threonine-protein kinase PLK3 (Homo sapiens, UniProt Q9H4B4); experiment: PLK3(PLK3PHY1) Takeda global kinase panel
Sequence of Serine/threonine-protein kinase PLK3 (Q9H4B4 whole entry): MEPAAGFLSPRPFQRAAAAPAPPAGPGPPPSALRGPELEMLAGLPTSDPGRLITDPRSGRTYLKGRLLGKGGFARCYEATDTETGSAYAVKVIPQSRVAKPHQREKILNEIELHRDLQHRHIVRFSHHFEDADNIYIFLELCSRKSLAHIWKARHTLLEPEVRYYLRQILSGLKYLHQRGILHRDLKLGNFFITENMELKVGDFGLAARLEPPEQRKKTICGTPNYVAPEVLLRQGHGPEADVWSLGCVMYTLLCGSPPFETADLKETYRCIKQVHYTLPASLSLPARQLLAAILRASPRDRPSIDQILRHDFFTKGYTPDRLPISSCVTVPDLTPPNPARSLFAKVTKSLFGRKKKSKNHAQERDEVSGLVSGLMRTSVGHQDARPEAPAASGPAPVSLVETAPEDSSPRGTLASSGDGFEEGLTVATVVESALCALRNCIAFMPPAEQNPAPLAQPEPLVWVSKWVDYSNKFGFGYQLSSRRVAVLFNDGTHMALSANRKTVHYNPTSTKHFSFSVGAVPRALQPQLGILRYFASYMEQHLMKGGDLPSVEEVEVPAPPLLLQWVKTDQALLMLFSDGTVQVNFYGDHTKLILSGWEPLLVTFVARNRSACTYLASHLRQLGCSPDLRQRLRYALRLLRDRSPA

[28] = target: Alpha-1D adrenergic receptor (Homo sapiens) (UniProt P25100); experiment: Inhibition of Adrenergic alpha1D at 10 µM in the Eurofins-Panlabs radioligand binding assay (Eurofins_assay_203400); details: Compound concentration 10.0 uM
[29] = target: Casein kinase II subunit alpha' (Homo sapiens, UniProt P19784); experiment: CK2alpha2(C2A2LGK1) Takeda global kinase panel
[30] = target: Ribosomal protein S6 kinase alpha-6 (Homo sapiens, UniProt Q9UK32); experiment: RSK4(R6A6LGF1) Takeda global kinase panel
Sequence of Ribosomal protein S6 kinase alpha-6 (Q9UK32 whole entry): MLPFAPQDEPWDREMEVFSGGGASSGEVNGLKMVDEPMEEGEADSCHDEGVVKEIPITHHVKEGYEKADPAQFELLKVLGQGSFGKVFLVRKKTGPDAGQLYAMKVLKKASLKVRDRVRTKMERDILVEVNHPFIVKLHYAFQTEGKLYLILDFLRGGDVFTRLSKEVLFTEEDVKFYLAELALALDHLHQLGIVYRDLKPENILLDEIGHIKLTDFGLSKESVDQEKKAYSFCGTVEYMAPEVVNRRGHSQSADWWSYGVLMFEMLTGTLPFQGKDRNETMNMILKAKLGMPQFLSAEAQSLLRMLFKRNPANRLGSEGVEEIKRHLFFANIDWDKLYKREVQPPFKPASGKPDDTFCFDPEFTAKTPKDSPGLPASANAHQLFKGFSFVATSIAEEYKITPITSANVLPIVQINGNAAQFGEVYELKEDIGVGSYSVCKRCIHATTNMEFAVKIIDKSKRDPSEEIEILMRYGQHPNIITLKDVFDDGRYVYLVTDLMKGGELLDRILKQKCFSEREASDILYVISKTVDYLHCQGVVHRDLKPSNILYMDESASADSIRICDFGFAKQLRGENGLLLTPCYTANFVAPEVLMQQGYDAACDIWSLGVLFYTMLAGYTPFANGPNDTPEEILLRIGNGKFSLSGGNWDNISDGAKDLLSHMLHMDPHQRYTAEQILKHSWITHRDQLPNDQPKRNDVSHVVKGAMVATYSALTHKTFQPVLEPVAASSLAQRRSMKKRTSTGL

[31] = target: D(2) dopamine receptor (Homo sapiens) (UniProt P14416); details: Compound concentration 10.0 uM
[32] = target: Sodium-dependent serotonin transporter (Homo sapiens) (UniProt P31645); details: Compound concentration 10.0 uM
Sequence of Sodium-dependent serotonin transporter (Homo sapiens) (P31645 whole entry, looked up): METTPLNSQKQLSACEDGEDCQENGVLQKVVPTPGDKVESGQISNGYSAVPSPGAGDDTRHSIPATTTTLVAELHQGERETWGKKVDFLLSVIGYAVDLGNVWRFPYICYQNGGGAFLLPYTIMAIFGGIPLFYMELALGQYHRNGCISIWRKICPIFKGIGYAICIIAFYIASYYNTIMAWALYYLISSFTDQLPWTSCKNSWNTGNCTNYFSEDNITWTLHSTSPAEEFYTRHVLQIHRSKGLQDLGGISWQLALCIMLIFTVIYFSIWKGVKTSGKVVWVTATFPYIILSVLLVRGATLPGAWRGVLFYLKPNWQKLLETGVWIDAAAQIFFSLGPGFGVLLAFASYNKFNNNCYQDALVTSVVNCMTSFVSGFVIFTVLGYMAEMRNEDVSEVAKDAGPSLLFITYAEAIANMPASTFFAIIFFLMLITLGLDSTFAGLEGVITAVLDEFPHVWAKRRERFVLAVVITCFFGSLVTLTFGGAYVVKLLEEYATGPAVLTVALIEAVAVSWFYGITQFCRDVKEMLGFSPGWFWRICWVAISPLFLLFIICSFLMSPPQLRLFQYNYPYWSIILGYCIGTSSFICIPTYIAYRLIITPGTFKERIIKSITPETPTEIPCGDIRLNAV

[33] = target: Serine/threonine-protein kinase LATS2 (Homo sapiens, UniProt Q9NRM7); experiment: LATS2(LAT2LGY1) Takeda global kinase panel
[34] = target: Cyclin-dependent kinase 17 (Homo sapiens, UniProt Q00537); experiment: PCTAIRE2(CD17SGS1) Takeda global kinase panel
[35] = target: Adenosine receptor A3 (Homo sapiens) (UniProt P0DMS8); details: Compound concentration 10.0 uM
[36] = target: Dual specificity protein kinase CLK1 (Homo sapiens, UniProt P49759); experiment: CLK1(CLK1LGF1) Takeda global kinase panel
Sequence of Dual specificity protein kinase CLK1 (P49759 whole entry): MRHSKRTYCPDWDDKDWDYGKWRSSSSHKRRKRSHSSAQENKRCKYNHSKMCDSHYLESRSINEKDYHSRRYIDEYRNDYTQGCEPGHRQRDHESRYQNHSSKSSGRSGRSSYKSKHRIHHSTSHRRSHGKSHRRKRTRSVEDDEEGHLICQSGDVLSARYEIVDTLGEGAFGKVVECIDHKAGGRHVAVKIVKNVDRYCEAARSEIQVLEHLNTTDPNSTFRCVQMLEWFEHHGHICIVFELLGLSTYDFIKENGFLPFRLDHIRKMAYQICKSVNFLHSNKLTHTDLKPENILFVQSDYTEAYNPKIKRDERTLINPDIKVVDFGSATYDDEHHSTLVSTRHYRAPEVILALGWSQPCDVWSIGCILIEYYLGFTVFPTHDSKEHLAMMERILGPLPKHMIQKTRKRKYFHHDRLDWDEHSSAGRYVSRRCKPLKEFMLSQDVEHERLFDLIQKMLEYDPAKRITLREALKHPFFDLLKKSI

[37] = target: Death-associated protein kinase 3 (Homo sapiens, UniProt O43293); experiment: DAPK3(DAP3LGP1) Takeda global kinase panel
[38] = target: Serine/threonine-protein kinase OSR1 (Homo sapiens, UniProt O95747); experiment: OSR1(OXS1LGY1) Takeda global kinase panel
[39] = target: Beta-1 adrenergic receptor (Homo sapiens) (UniProt P08588); details: Compound concentration 10.0 uM

How did the inhibition [1] turn out when `CN1C(=O)[C@@H](N2CCc3c(nn(Cc4ccccc4)c3Br)C2=O)COc2ccccc21` [TP-030-2] was run?
Its inhibition is -7.47%.

And the IC50 (LIM domain kinase 1)?
The IC50 was 1000 nM.

And the IC50 [2]?
Its IC50 is 1000 nM.

And the IC50 [3]?
Its IC50 is 1000 nM.

And the IC50 [4]?
Its IC50 is 1000 nM.

And the inhibition [5]?
The inhibition was 8%.

And the IC50 [6]?
The IC50 was 1000 nM.

And the IC50 [7]?
The IC50 was 1000 nM.

And the inhibition (Rattus norvegicus)?
Its inhibition is -6%.

What about the IC50 [8] of the same molecule?
The IC50 was 1000 nM.

And the IC50 [9]?
The IC50 was 1000 nM.

What about the IC50 [10] of the same molecule?
Its IC50 is 1000 nM.

And the IC50 [11]?
The IC50 was 1000 nM.

And the IC50 [12]?
Its IC50 is 1000 nM.

And the IC50 [13]?
The IC50 was 1000 nM.

And the IC50 [14]?
The IC50 was 1000 nM.

What about the IC50 [15] of the same molecule?
Its IC50 is 1000 nM.

And the inhibition [16]?
The inhibition was 63%.

What about the IC50 [17] of the same molecule?
The IC50 was 1000 nM.

What about the IC50 [18] of the same molecule?
The IC50 was 1000 nM.

And the IC50 [19]?
Its IC50 is 1000 nM.

And the inhibition [20]?
The inhibition was 6%.

And the IC50 [21]?
Its IC50 is 1000 nM.

And the IC50 [22]?
Its IC50 is 1000 nM.

And the IC50 [23]?
Its IC50 is 1000 nM.

And the IC50 [24]?
The IC50 was 1000 nM.

What about the IC50 (TGF-beta receptor type-2) of the same molecule?
Its IC50 is 1000 nM.

What about the IC50 [25] of the same molecule?
The IC50 was 1000 nM.

What about the IC50 (Activated CDC42 kinase 1) of the same molecule?
Its IC50 is 1000 nM.

And the IC50 [26]?
The IC50 was 1000 nM.

And the IC50 [27]?
The IC50 was 1000 nM.

And the inhibition [28]?
Its inhibition is -2%.

What about the IC50 [29] of the same molecule?
The IC50 was 1000 nM.

What about the IC50 [30] of the same molecule?
Its IC50 is 1000 nM.

What about the inhibition [31] of the same molecule?
Its inhibition is 3%.

What about the inhibition [32] of the same molecule?
Its inhibition is 22.6%.

And the IC50 [33]?
Its IC50 is 1000 nM.

And the IC50 [34]?
Its IC50 is 1000 nM.

What about the inhibition [35] of the same molecule?
Its inhibition is 33%.

And the IC50 [36]?
The IC50 was 1000 nM.

What about the IC50 [37] of the same molecule?
The IC50 was 1000 nM.

What about the IC50 [38] of the same molecule?
Its IC50 is 1000 nM.

And the inhibition [39]?
The inhibition was 12%.
